Measurements taken from ChEMBL document CHEMBL1201862, “PubChem BioAssay data set” (2004).
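Test compounds were applied to cells in 96-well plates for 48 hours at 5 doses. GI50 is the concentration that inhibits growth by half.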 Calls of active or inactive are those of the source. Rule as the data show it: active = GI50 up to about 1.1 µM and inactive = higher.

How the values were obtained:
Experiment in all cases: NCI anticancer screen, dose series, 48 h
HCT-15 = tested on: HCT-15
HOP-62 = tested on: HOP-62
SNB-19 = tested on: SNB-19
MDA-N = tested on: MDA-N
U-251 = tested on: U-251
CAKI-1 = tested on: CAKI-1
SF-539 = tested on: SF-539
T47D = tested on: T47D
SW-620 = tested on: SW-620
PC-3 = tested on: PC-3
TK-10 = tested on: TK-10
SK-MEL-28 = tested on: SK-MEL-28
A498 = tested on: A498
SK-MEL-5 = tested on: SK-MEL-5
MCF7 = tested on: MCF7
MDA-MB-435 = tested on: MDA-MB-435
SF-268 = tested on: SF-268
HT-29 = tested on: HT-29
OVCAR-5 = tested on: OVCAR-5
SR = tested on: SR

SMILES | GI50 (HCT-15) | GI50 (HOP-62) | GI50 (SNB-19) | GI50 (MDA-N) | GI50 (U-251) | GI50 (CAKI-1) | GI50 (SF-539) | GI50 (T47D) | GI50 (SW-620) | GI50 (PC-3) | GI50 (TK-10) | GI50 (SK-MEL-28) | GI50 (A498) | GI50 (SK-MEL-5) | GI50 (MCF7) | GI50 (MDA-MB-435) | GI50 (SF-268) | GI50 (HT-29) | GI50 (OVCAR-5) | GI50 (SR)
O=[N+]([O-])/C=C/c1cccc(F)c1 | 2.21 µM | 10.3 µM (inactive) | 11.7 µM (inactive) | 2.64 µM (inactive) | 3.53 µM (inactive) | 12.9 µM (inactive) | 4.45 µM (inactive) | 4.88 µM (inactive) | 2.58 µM (inactive) | 3.01 µM (inactive) | 3.82 µM (inactive) | 2.28 µM (inactive) | 13.7 µM (inactive) | 4.5 µM (inactive) | 1.05 µM (active) | 3.24 µM (inactive) | 12.4 µM (inactive) | 3.18 µM (inactive) | – | –
CC1=NCCN=C(C)C1/N=N/c1ccc2[nH]c(C)nc2c1 | 8.77 µM | 22.1 µM (inactive) | 10 µM (inactive) | 10.2 µM (inactive) | 17.5 µM (inactive) | 18.5 µM (inactive) | 20.5 µM (inactive) | 12.7 µM (inactive) | 14.9 µM (inactive) | 6.03 µM (inactive) | 19.7 µM (inactive) | 10.6 µM (inactive) | 0.912 µM (active) | – | 5.75 µM (inactive) | 8.53 µM (inactive) | 21.2 µM (inactive) | 12.6 µM (inactive) | 17.6 µM (inactive) | –
CC12C(=O)CC(CC1=O)C2(C)C | > 100 µM | > 100 µM (inactive) | > 100 µM (inactive) | > 100 µM (inactive) | – | > 100 µM (inactive) | – | > 100 µM (inactive) | > 100 µM (inactive) | > 100 µM (inactive) | > 100 µM (inactive) | > 100 µM (inactive) | – | > 100 µM (inactive) | > 100 µM (inactive) | – | > 100 µM (inactive) | > 100 µM (inactive) | > 100 µM (inactive) | –
Oc1ccc2ccccc2c1/N=N/c1ccc(/N=N/c2ccccc2)cc1 | > 100 µM | > 100 µM (inactive) | > 100 µM (inactive) | 50 µM (inactive) | 46.3 µM (inactive) | > 100 µM (inactive) | – | > 100 µM (inactive) | > 100 µM (inactive) | > 100 µM (inactive) | > 100 µM (inactive) | > 100 µM (inactive) | > 100 µM (inactive) | > 100 µM (inactive) | – | 64.1 µM (inactive) | > 100 µM (inactive) | > 100 µM (inactive) | > 100 µM (inactive) | 23.6 µM (inactive)
CCC(=O)N(c1ccccc1)C(C)CN1CCC(O)(c2cccc(C(F)(F)F)c2)CC1 (stereo not given) | 30.6 µM | 21.5 µM (inactive) | > 100 µM (inactive) | 19.5 µM (inactive) | 37.2 µM (inactive) | > 100 µM (inactive) | 23.2 µM (inactive) | 33.7 µM (inactive) | > 100 µM (inactive) | 19.3 µM (inactive) | 25.1 µM (inactive) | 23.1 µM (inactive) | 26.8 µM (inactive) | 20.6 µM (inactive) | – | 20.2 µM (inactive) | – | 13 µM (inactive) | 22.8 µM (inactive) | –
C/C1=C\CC[C@@]2(C)O[C@@H]2C[C@@H]2[C@H](C/C(C)=C/CC1)OC(=O)C21CCN=N1 (stereo not given in full) | > 75 µM | 27.9 µM (inactive) | > 75 µM (inactive) | > 75 µM (inactive) | > 75 µM (inactive) | > 75 µM (inactive) | > 75 µM (inactive) | > 100 µM (inactive) | > 75 µM (inactive) | > 75 µM (inactive) | > 75 µM (inactive) | > 75 µM (inactive) | > 100 µM (inactive) | 34.9 µM (inactive) | > 75 µM (inactive) | > 75 µM (inactive) | > 75 µM (inactive) | > 75 µM (inactive) | > 75 µM (inactive) | –
O=C1Nc2ccccc2/C1=N/Nc1nc(-c2ccc(Cl)c(Cl)c2)cs1 | 6.24 µM | > 100 µM (inactive) | > 100 µM (inactive) | 47 µM (inactive) | 77.4 µM (inactive) | 5.69 µM (inactive) | 73.5 µM (inactive) | 26 µM (inactive) | > 100 µM (inactive) | 24 µM (inactive) | 66.2 µM (inactive) | > 100 µM (inactive) | – | 20 µM (inactive) | 37.2 µM (inactive) | 72.1 µM (inactive) | – | 56 µM (inactive) | > 100 µM (inactive) | –
O=S1(=O)OCc2ccccc21 | 59.3 µM | 10.2 µM (inactive) | > 100 µM (inactive) | > 100 µM (inactive) | > 100 µM (inactive) | – | 25.2 µM (inactive) | > 100 µM (inactive) | 85.7 µM (inactive) | > 100 µM (inactive) | > 100 µM (inactive) | > 100 µM (inactive) | 37.5 µM (inactive) | > 100 µM (inactive) | > 100 µM (inactive) | 58.1 µM (inactive) | > 100 µM (inactive) | > 100 µM (inactive) | > 100 µM (inactive) | –
